This note sets out measurements from ChEMBL document CHEMBL1131360, “Bis-S-acyl-2-thioethyl (SATE)-bearing monophosphate prodrug of beta-L-FD4C as potent anti-HBV agent” (Bioorg Med Chem Lett, 1998).

A value given as a limit tells only on which side of the number the result lay.

What is called IC50 is the concentration that inhibits the measured activity by half. Low values mean greater potency, high ones weaker potency. By inhibition is commonly meant how much of the control response was suppressed. The low end stands for little suppression, the high end for strong suppression. As usually defined, the EC50 is the midpoint of the concentration-response curve.

The subject of experiment [1] is HepG2. In words: Tested for cytotoxicity in human hepatoma cell (2.2.15). It is filed as functional, cell-based.
Experiment [2] has as its system M109. In words: Tested for cytotoxicity in murine lung carcinoma (M109). In kind it is functional, cell-based. Conditions: Mus musculus; call rule not given here.
The subject of experiment [3] is Colon 26. In words: Tested for cytotoxicity in murine colon cancer (C26). The settings on record: Mus musculus. In kind it is functional, cell-based.
In experiment [4] the test system is B16. Nature of the experiment: Tested for cytotoxicity in murine melanoma (B16). In kind it is functional, cell-based. The settings on record: Mus musculus.
For experiment [5], the system named is CCRF-CEM. In words: Tested for cytotoxicity in human T-cell lymphoblastic leukemia cell line (CEM). It is filed as functional, cell-based.
The subject of experiment [6] is HepG2. In words: Tested for the ability to inhibit HBV DNA synthesis at a concentration of 4 nM using human hepatoblastoma cell line HepG2 2.2.15. It is filed as functional.
Experiment [7] concerns M109. In words: Tested for cytotoxicity in murine lung carcinoma (M109); not cytotoxic at the highest concentration tested (70 uM). In kind it is functional, cell-based, Mus musculus.
The test system of experiment [8] is HepG2. In words: Tested for the ability to inhibit HBV replication at a concentration of 19 nM using human hepatoblastoma cell line HepG2 2.2.15. It is filed as functional.
Experiment [9] deals with B16. Nature of the experiment: Tested for cytotoxicity in murine melanoma (B16); not cytotoxic at the highest concentration tested (70 uM). In kind it is functional, cell-based, Mus musculus.
Experiment [10] concerns HepG2. Nature of the experiment: Tested for cytotoxicity in human hepatoma cell (2.2.15); not cytotoxic at the highest concentration tested (70 uM). It is filed as functional, cell-based.
Experiment [11] concerns Colon 26. Nature of the experiment: Tested for cytotoxicity in murine colon cancer (C26); not cytotoxic at the highest concentration tested (70 uM). In kind it is functional, cell-based, Mus musculus.
The subject of experiment [12] is HepG2. Nature of the experiment: Tested for the ability to inhibit extracellular HBV DNA synthesis at a concentration of 10 nM. It is filed as functional. Conditions: Homo sapiens.
The test system of experiment [13] is HepG2. In words: Tested for effective concentration against HBV treated with drug every 3 days for 9 days using human hepatoblastoma cell line HepG2 2.2.15. In kind it is functional, cell-based.
Experiment [14] concerns HepG2. In words: Tested for the ability to inhibit HBV DNA synthesis at a concentration of 7 nM using human hepatoblastoma cell line HepG2 2.2.15. It is filed as functional.
Experiment [15] has as its system HepG2. In words: Tested for the ability to inhibit HBV replication at a concentration of 40 nM using human hepatoblastoma cell line HepG2 2.2.15. In kind it is functional.

Take `CC(=O)SCCOP(=O)(OCCS)OC[C@H]1C=C[C@@H](n2cc(F)c(N)nc2=O)O1` (some centres not stated): the IC50 in [1] is more than 70 µM; in experiment [2] it was more than 70 µM; in [3], more than 70 µM; in experiment [4], more than 70 µM; in [5] it was 52 µM.
As to `CC(=O)SCCOP(=O)(OCCSC(C)=O)OC[C@H]1CC[C@@H](n2cnc3c(N)ncnc32)O1`, the IC50 in experiment [1] is more than 70 µM; in [2], more than 70 µM; in experiment [3], more than 70 µM; in experiment [4], more than 70 µM; in [5] it was 13 µM.
`CC(=O)SCCOP(=O)(OCCSC(C)=O)OC[C@H]1C=C[C@@H](n2cc(F)c(N)nc2=O)O1` returned an inhibition at 0.004 µM in experiment [6] of 50%. The 50% inhibitory concentration (IC50) entry in experiment [7] is “Not Active”; in experiment [5] it was 52 µM; in experiment [9], “Not Active”; in experiment [10], “Not Active”; in [11], “Not Active”. In [8], this compound showed an inhibition at 0.019 µM of 90%. The compound also registered an inhibition at 0.01 µM in [12] of 85%. In addition, the 50% effective concentration (EC50) in experiment [13] amounted to 0.002 µM.
Take `Nc1nc(=O)n([C@@H]2C=C[C@H](CO)O2)cc1F` [ELVUCITABINE]: the concentration for half-maximal inhibition (IC50) entry in [7] was “Not Active”; in experiment [5], 13 µM; in experiment [9], “Not Active”; in [10], “Not Active”; in [11], “Not Active”. The compound also returned an inhibition at 0.007 µM in [14] of 50%. In experiment [15], this compound yielded an inhibition at 0.04 µM of 70%. The response in [13] was half-maximal at 0.017 µM (EC50).
